Assay results from patent US20250276994A1, “CAP ANALOG FOR THE 5'-END OF EUKARYOTIC MESSENGER RNAS” (WESTFÄLISCHE WILHELMS-UNIVERSITÄT, priority 2021, published 2025).

Experiments:
Reticulocyte Lysate = assay: In vitro translation of capped FLuc-mRNA and luminescence measurement; assay type: biochemical
Protocol: In vitro translation was performed using a eukaryotic cell free protein expression kit from Reticulocyte Lysate (Invitrogen). Experiments were performed in 12.5 μL total volume containing 20 ng of the corresponding FLuc-mRNAs, 50 μM L-methionine and 150 mM potassium acetate. Samples were mixed with 8.5 μL of the reticulocyte lysate and incubated for 90 min at 30° C. Afterwards, 2 μL of the respective translation mix were used in subsequent luminescence measurement. The translation efficiency of the reporter mRNAs was assessed in a luciferase assay using Beetle-juice Luciferase Assay Firefly (pjk). Luciferase activity was determined by adding 50 μL freshly prepared substrate solution to the translation mixture. Luminescence was monitored using a Tecan Infinite® m1000pro microplate reader with an acquisition time of 3 s (duration of signal acquisition).
The photocleavable 5′-cap analog of formula (7) was used for in vitro transcription to make FLuc mRNA as described above. This was used for in vitro translation and Luminescence measurement as described above. The commercial non-modified cap analog denoted “m^7GpppG” (Jena Bioscience) was used as positive control. Samples were irradiated for 30 seconds. The ApppG capped mRNA, which is not recognized by the translation initiation factor served as negative control, which is substracted from the other samples as it represents background activity. The experiment was performed in quadruplicates. The FLuc-mRNA capped with the photocleavable 5′-cap analog of formula (7) is denoted “ONB”.
The in vitro translation assay and luminescence measurement was performed as described above using the photocleavable 5′-cap analog of formula (12). The capped mRNA was denoted “DMNB-m^7GpCH2ppG capped FLuc-mRNA”. Samples were irradiated for 30 seconds (365 nm) or 60 seconds (405 nm). The commercial non-modified cap analog denoted “m^7GpppG” (Jena Bioscience) was used as positive control and all other samples were normalized to it. The ApppG capped mRNA, which is not recognized by the translation initiation factor served as negative control, which is substracted from the other samples as it represents background activity. The experiment was performed in triplicates, except *DMNB-m7GpCH2ppG (365 nm) which was a single determination.
The in vitro translation assay in reticulocyte lysate and luminescence measurement was performed as described above using m^7GpppG capped FLuc-mRNA caged with the photocleavable 5′-cap analog of formulas (22) and (25) (denoted “DMNB m^7GpppG” and “NPOM m^7GpppG”). Samples were irradiated for 30 seconds at 365 nm. The ApppG capped mRNA, which is not recognized by the translation initiation factor served as negative control, which was substracted from the other samples as it represents background activity. The values were normalized to the non-irradiated sample with m^7GpppG capped mRNA (100%). The experiment was performed in triplicates.
The in vitro translation assay in reticulocyte lysate and luminescence measurement was performed as described above using m^7GpppG capped FLuc-mRNA with modified nucleotides m^5C and N^1methyl-pseudouridine caged with the photocleavable 5′-cap analog of formulas (22) and (25) (denoted “DMNB m^7GpppG mod” and “NPOM m^7GpppG mod”). Samples were irradiated for 30 seconds at 365 nm. The ApppG capped mRNA, which is not recognized by the translation initiation factor served as negative control, which was substracted from the other samples as it represents background activity. The values were normalized to the non-irradiated sample with m^7GpppG capped mRNA (100%). The experiment was performed in triplicates.

[1] = Irradiation of caged nucleosides, conversion estimated by HPLC; assay type: physicochemical; conditions: 450 nm; H2O:ACN (1:1)
Protocol: Conversions from caged compounds to uncaged compounds were estimated by integrating the peaks of a UV-spectrum that resulted from the HPLC analysis (Agilent infinity 1260).
When irradiating isolated N2-modified compounds, a final volume of 10 μL in double distilled water was irradiated using a LED (λmax=365 nm/405 nm/420 nm) and then analyzed by RP-HPLC.
A 500 μM solution of the compound 15, nitropiperonylmethyl fused via a carbamate moiety to guanosine (denoted “NPOM guanosine” or “caged guanosine”), in water/acetone/acetonitrile was irradiated in a 10 μL volume with either 405 nm for 20 s, 40 s or 60 s or with 365 nm for 5 s, 10 s or 20 s, respectively, using a LED power (input 3W and output 147 mW/cm^2). HPLC analysis was performed as described above.
Samples of the adenosine fused via a carbamate moiety to 7-(diethylamino)-4-(hydroxymethyl)-coumarin (DEACM) were irradiated with 450 nm. […] The peak at 21.1 min corresponds to the obtained compound and the peaks at 11.1 and 21.9 min correspond to the photo-cleavage products adenosine and DEACM-OH, respectively.

HeLa cells = assay: Translation and irradiation in HeLa cells of capped GLuc-mRNA (luminescence); assay type: cell-based
Protocol: HeLa cells were transferred to a 96 well plate 20 h prior transfection. 30.000 cells/well were cultivated in growth Media (MEM, 10% FCS, 1% glutamine, 1% Penicillin, 1% Streptomycine, […] non-essential aminoacids). For transfection the growth media was exchanged for MEM-media with 0.6 μL Metafectene® Pro (0.3 μL) and 100 ng mRNA was added per well. 6 h after transfection of the cells the media was exchange by MEM-media, followed by irradiation and another MEM-media exchange. After 24 h post transfection the supernatant in the wells was used for further luminescence measurements. Values of the ApppG capped mRNA represent cap independent translation and were therefore subtracted from the other values.
In cell translation and irradiation in cell culture of mammalian HeLa cells was performed as described above. GLuc mRNA capped with the photocleavable 5′-cap analog of formula (12) (“DMNB”) was used and the commercial non-modified cap analog denoted “m^7GpppG” (Jena Bioscience) was used as a control. HeLa cells were either transfected with the DMNB-m^7GpCH2ppG capped mRNA (irradiated and non-irradiated before transfection) or with the natural capped mRNA (irradiated and non-irradiated before transfection). Irradiation of the mRNA containing the natural cap was performed (5 V, 600 mA) with 365 nm for 30 seconds to evaluate the resulting influence on translational efficiency. DMNB-m^7GpCH2ppG capped mRNA was irradiated in the same way or with 405 nm for 60 seconds. The ApppG capped mRNA, which is not recognized by the translation initiation factor served as negative control, which is substracted from the other samples as it represents background activity. The values were normalized to the non-irradiated m^7GpppG capped sample (100%). The experiment was performed in triplicates.
The luminescence measurement of cell culture media after translation in cells transfected with modified and non-modified GLuc mRNA was repeated using irradiation with 365 nm/405 nm for different periods of time. HeLa cells were either transfected with the GLuc mRNA capped with the photocleavable 5′-cap analog of formula (12) denoted “DMNB-m^7GpCH2ppG capped mRNA” or with the natural m^7GpppG capped mRNA. Cells transfected with the natural capped mRNA were irradiated (5 V, 600 mA) with 365 nm/405 nm for 30 s or 60 s to evaluate the resulting influence on translational efficiency. Cells transfected with DMNB-m^7GpCH2ppG capped mRNA were irradiated in the same way. The ApppG capped mRNA, which is not recognized by the translation initiation factor served as negative control, which is substracted from the other samples as it represents background activity. The values were normalized to the non-irradiated cells with m^7GpppG capped mRNA (100%). The experiment was performed in triplicates.
Luminescence measurement of cell culture media after translation of transfected modified and non-modified GLuc mRNA in cells. HeLa cells were either transfected with the NPOM-m^7GpCH2ppG capped mRNA or with the natural m^7GpppG capped mRNA. Cells transfected with the natural capped mRNA were irradiated (5 V, 600 mA) with 365 nm/405 nm for different periods of time to evaluate the resulting influence on translational efficiency. Cells transfected with NPOM-m^7GpCH2ppG capped mRNA were irradiated in the same way. The ApppG capped mRNA, which is not recognized by the translation initiation factor served as negative control, which is substracted from the other samples as it represents background activity. […]

T7 RNA polymerase = target: T1, T7 RNA polymerase (Escherichia phage T7, UniProt P00573); assay: In vitro transcription of GLuc mRNA with cap analogs, gel analysis; assay type: biochemical
T1 construct: purchased Thermo Scientific
T1 sequence (P00573 whole entry): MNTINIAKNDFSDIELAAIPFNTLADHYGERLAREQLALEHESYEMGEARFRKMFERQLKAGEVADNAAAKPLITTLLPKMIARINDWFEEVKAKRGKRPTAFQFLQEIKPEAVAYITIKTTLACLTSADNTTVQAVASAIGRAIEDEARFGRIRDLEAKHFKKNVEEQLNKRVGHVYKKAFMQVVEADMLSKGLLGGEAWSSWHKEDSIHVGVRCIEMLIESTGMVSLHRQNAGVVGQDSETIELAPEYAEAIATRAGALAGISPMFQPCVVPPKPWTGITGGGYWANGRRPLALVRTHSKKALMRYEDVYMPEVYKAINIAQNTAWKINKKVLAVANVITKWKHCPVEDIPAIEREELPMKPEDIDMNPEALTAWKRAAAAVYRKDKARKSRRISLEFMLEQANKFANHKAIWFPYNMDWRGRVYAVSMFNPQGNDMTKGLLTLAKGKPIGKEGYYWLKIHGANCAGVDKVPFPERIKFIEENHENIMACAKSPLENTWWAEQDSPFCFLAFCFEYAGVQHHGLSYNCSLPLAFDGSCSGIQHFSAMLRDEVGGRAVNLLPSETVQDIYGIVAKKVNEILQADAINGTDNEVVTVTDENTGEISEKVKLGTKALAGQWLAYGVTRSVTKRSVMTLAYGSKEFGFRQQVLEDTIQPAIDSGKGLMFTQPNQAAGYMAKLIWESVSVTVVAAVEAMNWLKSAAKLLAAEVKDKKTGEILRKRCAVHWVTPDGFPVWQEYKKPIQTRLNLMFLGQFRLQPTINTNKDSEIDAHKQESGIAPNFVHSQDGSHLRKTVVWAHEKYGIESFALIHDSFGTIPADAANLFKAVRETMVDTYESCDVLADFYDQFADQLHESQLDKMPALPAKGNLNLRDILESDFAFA
Protocol: First, the DNA sequence coding for eGFP, Firefly luciferase (FLuc) or Gaussia luciferase (GLuc) mRNAs were amplified from pmRNA-vectors containing the respective sequence. After purification (NucleoSpin Gel and PCR Clean-up, Macherey-Nagel), the resulting linear dsDNA was used as template (200 ng) for in vitro T7 transcription performed in transcription buffer (40 mM Tris/HCl, 25 mM NaCl, 8 mM MgCl2, 2 mM spermidine(HCl)3) by adding either a A/C/UTP (0.5 mM) mix or a mix with modified nucleotides (A/m^5C/N^1-methylpseudo-UTP) (0.5 mM), GTP (0.25 mM), GpppG, m7GpppG, ApppG, DMNB or NPOM cap analog (1 mM), T7 RNA polymerase (50 U) (Thermo Scientific) and pyrophosphatase (0.1 U) (Thermo Scientific) for 4 h at 37° C. Remaining DNA template was digested in presence of 2 U DNase I for 1 h at 37° C. and then mRNAs were purified using the RNA Clean & Concentrator™-5 Kit (Zymo Research). To digest non-capped RNAs, 10 U of the RNA 5′-polyphosphatase (Epicentre) as well as the supplied reaction buffer were added to purified mRNAs. After an incubation period of 30 min at 37° C., 0.5 U of the 5′-3′ exoribonuclease XRN1 (NEB) and MgCl2 (5 mM) were added. The reaction mixture was incubated for 60 min at 37° C. Subsequently, capped mRNAs were purified using the RNA Clean & Concentrator™-5 Kit (Zymo Research).
The photocleavable 5′-cap analogs of formulas (12) and (18) were used for in vitro transcription of GLuc mRNA as described above and analysed via agarose gel electrophoresis.
“M” denotes Riboruler low range RNA ladder.

## CC(OC(=O)Nc1nc2c(c(=O)[nH]1)[n+](C)cn2[C@@H]1O[C@H](COP(=O)(O)OP(=O)(O)OP(=O)(O)OC[C@H]2O[C@@H](n3cnc4c(=O)[nH]c(N)nc43)C(O)C2O)C(O)C1O)c1cc2c(cc1[N+](=O)[O-])OCO2 (stereo partly drawn) [compound 25, P1-(N^2-(1-(6-nitrobenzo[d][1,3]dioxol-5-yl)ethyl)oxycarbonyl-7-methylguanosin-5′-yl)-P3-guanosin-5′-yl triphosphate]
Reticulocyte Lysate; capped FLuc-mRNA with modified nucleotides m^5C and N^1methyl-pseudouridine, 30 seconds at 365 nm
  in vitro translation (luminescence) after irradiation: marked increase of translation
Reticulocyte Lysate; capped FLuc-mRNA, regular nucleotides, 30 seconds at 365 nm
  in vitro translation (luminescence) after irradiation: marked increase of translation

## CCN(CC)c1ccc2c(COC(=O)Nc3ncnc4c3ncn4[C@@H]3O[C@H](CO)[C@H](O)C3O)cc(=O)oc2c1 (stereo partly drawn)
[1]
  photo-cleavage upon irradiation (HPLC): photocleavable

## C[n+]1cn([C@@H]2O[C@H](COP(=O)(O)CP(=O)(O)OP(=O)(O)OC[C@H]3O[C@@H](n4cnc5c(=O)[nH]c(N)nc54)C(O)C3O)C(O)C2O)c2nc(NC(=O)OCc3ccccc3[N+](=O)[O-])[nH]c(=O)c21 (stereo partly drawn) [compound 7, P1-(N^2-(2-Nitrobenzyl)oxycarbonyl-7-methylguanosin-5′-yl)-P3-guanosin-5′-yl 1,2-methylenetriphosphate]
HeLa cells; differently capped GLuc mRNAs, normalized to m^7GpppG, single determination
  translation efficiency (luminescence of cell supernatant): impacts the translation efficiency in an inhibiting way
Reticulocyte Lysate; capped FLuc-mRNA, irradiated for 30 seconds
  in vitro translation (luminescence) after irradiation: partially restored
Reticulocyte Lysate; capped FLuc-mRNA, non-irradiated, normalized to m^7GpppG capped mRNA
  in vitro translation (luminescence), non-irradiated: successfully inhibited to a high degree

## CC(OC(=O)Nc1nc2c(c(=O)[nH]1)[n+](C)cn2[C@@H]1O[C@H](COP(=O)(O)CP(=O)(O)OP(=O)(O)OC[C@H]2O[C@@H](n3cnc4c(=O)[nH]c(N)nc43)C(O)C2O)C(O)C1O)c1cc2c(cc1[N+](=O)[O-])OCO2 (stereo partly drawn) [compound 18, P1-(N^2-(1-(6-nitrobenzo[d][1,3]dioxol-5-yl)ethyl)oxycarbonyl-7-methylguanosin-5′-yl)-P3-guanosin-5′-yl 1,2-methylenetriphosphate]
HeLa cells; GLuc mRNA, transfected cells irradiated 15 s, 25 s or 30 s, increase at 365 nm
  translation in cells (luminescence) after irradiation of the cells: significant increase of translation
T7 RNA polymerase
  incorporation of cap analog into RNA: incorporated into the RNA

## Cn1c[n+]([C@@H]2O[C@H](COP(=O)(O)OP(=O)([O-])OP(=O)(O)OC[C@H]3O[C@@H](n4cnc5c(=O)[nH]c(N)nc54)[C@H](O)[C@@H]3O)[C@@H](O)[C@H]2O)c2nc(N)[nH]c(=O)c21 [m^7GpppG, reference compound]
T7 RNA polymerase
  incorporation of cap analog into RNA: incorporated into the RNA
